A short description of the series: Stability of the amphetacarbamate moiety in solution. It counts as physicochemical. An excerpt: As noted above, the existence or identity of amphetamine carbamate or amphetacarbamate per se were not known. Rather, amphetamine carbamate was identified and characterized by analyzing crystals isolated from drug-containing polymer matrices of transdermal amphetamine compositions, and amphetacarbamate was identified the work done to identify and characterize amphetamine carbamate. In addition to the inventions described herein pertaining to transdermal amphetamine compositions and amphetamine transdermal delivery systems, methods for detecting and quantifying amphetamine carbamate had to be developed. […] Thus, for example, typical HPLC assays could not be used.

Regarding “(S)-1-phenylpropan-2-ammonium-(S)-(1-phenylpropan-2-yl)carbamate [amphetamine carbamate]”, the “stability of amphetacarbamate moiety” value was “labile and readily converts to amphetamine”.

The record behind these values is patent publication US12427122B2, “Method of making transdermal amphetamine composition with low levels of carbamate” (Noven Pharmaceuticals, Inc., priority 2021, dated 2025).
